Laboratory results published in ChEMBL document CHEMBL4028830, “Novel pyrazoles and pyrazolo[1,2-a]pyridazines as selective COX-2 inhibitors; Ultrasound-assisted synthesis, biological evaluation, and DFT calculations” (Bioorg Med Chem Lett, 2017).

Experiments:
Rattus norvegicus [1] = test: Analgesic activity in albino rat model of thermal-induced nociception assessed as tail withdrawal latency time at 100 mg/kg, po measured immediately by tail immersion test (reference value: 2.60 +/- 0.14 min); format: functional
[2] = molecular target: Prostaglandin G/H synthase 1 (Homo sapiens, UniProt P23219); test: Inhibition of COX1 (unknown origin) using arachidonic acid as substrate pretreated for 10 mins followed by substrate addition measured after 2 mins by enzyme-immunoassay
Rattus norvegicus [3] = test: Analgesic activity in albino rat model of thermal-induced nociception assessed as tail withdrawal latency time at 100 mg/kg, po measured at 120 mins post dose by tail immersion test (reference value: 2.63 +/- 0.15 min); format: functional
Rattus norvegicus [4] = test: Anti-inflammatory activity against carrageenan-induced paw oedema in albino rat assessed as paw thickness at 100 mg/kg measured at 3 hrs post dose (reference value: 0.93 +/- 0.02 cm); format: functional
Rattus norvegicus [5] = test: Analgesic activity in albino rat model of thermal-induced nociception assessed as tail withdrawal latency time at 100 mg/kg, po measured at 180 mins post dose by tail immersion test (reference value: 2.62 +/- 0.13 min); format: functional
Rattus norvegicus [6] = test: Anti-inflammatory activity against carrageenan-induced paw oedema in albino rat assessed as paw thickness at 100 mg/kg measured at 6 hrs post dose (reference value: 0.92 +/- 0.03 cm); format: functional
[7] = molecular target: T1, Prostaglandin G/H synthase 2 (Homo sapiens, UniProt P35354); test: Inhibition of COX2 (unknown origin) using arachidonic acid as substrate pretreated for 10 mins followed by substrate addition measured after 2 mins by enzyme-immunoassay
T1 sequence (P35354 whole entry): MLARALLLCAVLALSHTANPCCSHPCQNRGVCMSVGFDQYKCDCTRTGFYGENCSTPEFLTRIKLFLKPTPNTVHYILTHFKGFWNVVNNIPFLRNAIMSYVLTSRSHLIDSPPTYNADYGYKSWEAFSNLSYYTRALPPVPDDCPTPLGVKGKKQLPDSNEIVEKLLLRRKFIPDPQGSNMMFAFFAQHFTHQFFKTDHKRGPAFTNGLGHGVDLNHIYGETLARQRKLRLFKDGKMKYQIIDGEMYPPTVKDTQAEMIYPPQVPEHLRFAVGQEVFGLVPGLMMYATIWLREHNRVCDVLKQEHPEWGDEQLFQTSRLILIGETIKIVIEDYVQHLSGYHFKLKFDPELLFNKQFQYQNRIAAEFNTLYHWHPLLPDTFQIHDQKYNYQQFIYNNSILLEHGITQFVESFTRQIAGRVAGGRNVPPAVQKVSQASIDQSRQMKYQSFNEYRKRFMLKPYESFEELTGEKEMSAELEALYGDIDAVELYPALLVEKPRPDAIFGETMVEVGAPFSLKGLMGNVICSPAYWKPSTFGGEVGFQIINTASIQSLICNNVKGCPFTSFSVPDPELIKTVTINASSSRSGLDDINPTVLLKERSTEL

Homo sapiens = organism: Homo sapiens; test: Selectivity index, ratio of IC50 for COX1 (unknown origin) to IC50 for COX2 (unknown origin)
Rattus norvegicus [8] = test: Analgesic activity in albino rat model of thermal-induced nociception assessed as tail withdrawal latency time at 100 mg/kg, po measured at 60 mins post dose by tail immersion test (reference value: 2.62 +/- 0.11 min); format: functional
Rattus norvegicus [9] = test: Anti-inflammatory activity against carrageenan-induced paw oedema in rat assessed as paw thickness at 100 mg/kg measured immediately (reference value: 0.98 +/- 0.03 cm); format: functional
Rattus norvegicus [10] = test: Analgesic activity in albino rat model of thermal-induced nociception assessed as tail withdrawal latency time at 100 mg/kg, po measured at 240 mins post dose by tail immersion test (reference value: 2.62 +/- 0.13 min); format: functional
Rattus norvegicus [11] = test: Analgesic activity in albino rat model of thermal-induced nociception assessed as tail withdrawal latency time at 100 mg/kg, po measured at 300 mins post dose by tail immersion test (reference value: 2.58 +/- 0.11 min); format: functional

Chain of Prostaglandin G/H synthase 1 (P23219 whole entry): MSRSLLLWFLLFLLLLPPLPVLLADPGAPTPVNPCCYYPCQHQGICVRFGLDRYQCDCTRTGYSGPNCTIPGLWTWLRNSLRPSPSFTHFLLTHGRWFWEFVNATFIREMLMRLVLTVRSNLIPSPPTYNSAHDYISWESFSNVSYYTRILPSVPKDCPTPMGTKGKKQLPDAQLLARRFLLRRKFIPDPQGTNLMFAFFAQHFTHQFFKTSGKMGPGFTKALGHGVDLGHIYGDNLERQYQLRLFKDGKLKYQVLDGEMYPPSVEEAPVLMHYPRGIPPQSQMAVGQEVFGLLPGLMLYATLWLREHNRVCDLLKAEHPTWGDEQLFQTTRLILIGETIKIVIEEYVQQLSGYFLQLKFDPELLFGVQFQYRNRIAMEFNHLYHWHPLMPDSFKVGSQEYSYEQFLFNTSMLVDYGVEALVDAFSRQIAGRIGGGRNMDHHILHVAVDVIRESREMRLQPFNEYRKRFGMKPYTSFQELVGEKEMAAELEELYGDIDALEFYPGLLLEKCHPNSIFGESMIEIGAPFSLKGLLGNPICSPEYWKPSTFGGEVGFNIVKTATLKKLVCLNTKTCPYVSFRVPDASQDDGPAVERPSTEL

Row | IC50 ([2]; read-out: IC50) [nM] | IC50 ([7]; read-out: IC50) [nM] | Selectivity Index (Homo sapiens) | IC50 [2] | IC50 [7] | SMILES | Time (Rattus norvegicus [1]) [min] | Time (Rattus norvegicus [3]) [min] | Activity (Rattus norvegicus [4]) [cm] | Time (Rattus norvegicus [5]) [min] | Activity (Rattus norvegicus [6]) [cm] | Time (Rattus norvegicus [8]) [min] | Activity (Rattus norvegicus [9]) [cm] | Time (Rattus norvegicus [10]) [min] | Time (Rattus norvegicus [11]) [min]
1 | 70.4 | 16.2 | 4.35 | – | – | O=C(c1ccccc1O)n1nc(Nc2ccccc2)cc1-c1ccccc1O | 2.47 | 4.05 | 0.63 | 4.18 | 0.55 | 3.95 | 0.97 | 4.07 | 4.22
2 | – | – | – | – | – | O=C([O-])Cc1ccccc1Nc1c(Cl)cccc1Cl.[Na+] [DICLOFENAC SODIUM] | 2.63 | 4.98 | 0.77 | 4.87 | 0.63 | 6.44 | 1.02 | 4.21 | 3.99
3 | – | – | – | – | – | O=C(/C=C/c1ccccc1O)Nc1ccccc1 | 2.63 | 4.12 | 0.83 | 4.18 | 0.65 | 3.78 | 1.02 | 3.92 | 3.97
4 | 88.1 | 181 | 0.47 | – | – | CCOC(=O)C1=C(N)N2C(=O)CCC(=O)N2C1c1ccccc1O (stereo not given) | 2.63 | 6.68 | 0.7 | 6.85 | 0.65 | 5.53 | 1.02 | 6.33 | 5.62
5 | 66.7 | 20.1 | 3.32 | – | – | CCOC(=O)C1=C(N)n2c(=O)c3ncccc3c(=O)n2C1c1ccccc1O (stereo not given) | 2.55 | 5.53 | 0.68 | 5.75 | 0.62 | 5.83 | 0.98 | 5.25 | 4.08
6 | – | – | – | Not Active | Not Active | O=C(NN1C(=O)C=CC1=O)c1ccccc1O | 2.58 | 5.52 | 0.83 | 5.47 | 0.77 | 5.98 | 1 | 5.23 | 5.13
7 | 74.4 | 90.1 | 0.83 | – | – | CCOC(=O)C1=C(N)n2c(=O)ccc(=O)n2C1c1ccccc1O (stereo not given) | 2.72 | 4.47 | 0.82 | 4.58 | 0.7 | 4.33 | 1.03 | 4.52 | 4.43
8 | 92.2 | 130 | 0.71 | – | – | O=C(NN1C(=O)c2ccccc2C1=O)c1ccccc1O | 2.55 | 5.58 | 0.73 | 6.25 | 0.72 | 5.58 | 0.98 | 6.23 | 7.2
9 | 82.1 | 151 | 0.54 | – | – | CC1=NN(C(=O)c2ccccc2O)C(=O)C1 | 2.48 | 4.78 | 0.77 | 4.7 | 0.67 | 5.52 | 1.02 | 4.67 | 4.4
10 | – | – | – | Not Active | Not Active | O=C(NN1C(=O)CCC1=O)c1ccccc1O | 2.42 | 4.98 | 0.73 | 4.85 | 0.62 | 5.02 | 1 | 5.28 | 5.78
11 | – | – | – | Not Active | Not Active | Cc1cc(C)n(C(=O)c2ccccc2O)n1 | 2.62 | 5.79 | 0.75 | 4.83 | 0.67 | 6.05 | 0.98 | 5.66 | 4.8
12 | – | – | – | Not Active | Not Active | CCOC(=O)C1=C(N)n2c(=O)c3ccccc3c(=O)n2C1c1ccccc1O (stereo not given) | 2.52 | 6.68 | 0.72 | 6.85 | 0.67 | 5.53 | 0.97 | 6.33 | 5.62
13 | – | – | – | Not Active | Not Active | O=C(NN1C(=O)c2cccnc2C1=O)c1ccccc1O | 2.57 | 3.97 | 0.83 | 4.3 | 0.72 | 3.78 | 0.97 | 4.27 | 4.17
